Ki data for four molecules are collected here from patent publication US8268881B2, “Carboxamide derivatives as muscarinic receptor antagonists” (Pfizer Limited, priority 2005, dated 2012).

SMILES strings stand for the structures. pKi: −log10 of the molar value.

T1 sequence (P20309 whole entry): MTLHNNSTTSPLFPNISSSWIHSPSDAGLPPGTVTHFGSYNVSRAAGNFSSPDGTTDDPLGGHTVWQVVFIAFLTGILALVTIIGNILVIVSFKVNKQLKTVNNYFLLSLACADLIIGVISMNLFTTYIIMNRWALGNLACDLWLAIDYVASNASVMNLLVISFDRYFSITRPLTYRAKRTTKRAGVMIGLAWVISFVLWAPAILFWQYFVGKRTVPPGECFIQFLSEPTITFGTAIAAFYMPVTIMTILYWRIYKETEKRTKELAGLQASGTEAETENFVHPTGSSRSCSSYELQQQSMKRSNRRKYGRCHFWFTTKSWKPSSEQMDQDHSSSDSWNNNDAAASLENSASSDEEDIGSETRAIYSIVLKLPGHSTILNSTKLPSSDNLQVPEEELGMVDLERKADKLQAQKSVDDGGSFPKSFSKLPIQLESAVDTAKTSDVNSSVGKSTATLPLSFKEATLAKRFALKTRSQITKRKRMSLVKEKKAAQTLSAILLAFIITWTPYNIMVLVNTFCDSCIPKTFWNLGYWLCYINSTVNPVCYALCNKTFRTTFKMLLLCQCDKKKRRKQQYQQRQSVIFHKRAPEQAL

The assay has as its target T1, human muscarinic M3 receptor (Homo sapiens, UniProt P20309).
T1 construct: expressed in transfected cells
The experiment in a line: hM3 β-Lac potency assay (cell based β-lactamase). To be noted: CHO cells expressing human M3 receptor, NFAT β-lactamase reporter; inhibition of 80 nM carbamyl choline signal, 4 h; IC50 converted to Ki by Cheng-Prusoff; read-out: Cell based β-lactamase M3 Ki.
Broadly, the pKi is −log10 of the Ki, conventionally taken in molar units. For the molecule `COc1ccc(O[C@@H]2CCN(C(C)(C)CCC(C(N)=O)(c3ccccc3)c3ccccc3)C2)cc1Cl` [Example 28, 5-[(3R)-3-(3-chloro-4-methoxy-phenoxy)pyrrolidin-1-yl]-5-methyl-2,2-diphenylhexanamide], the pKi was 7.32.

As for `CC(C)(CCC(C(N)=O)(c1ccccc1)c1ccccc1)N1CC[C@@H](Oc2ccc(C(F)(F)F)cc2)C1` [Example 26, 5-[(3R)-3-(4-trifluoromethyl-phenoxy)pyrrolidin-1-yl]-5-methyl-2,2-diphenylhexanamide], the pKi is 8.78.

Consider `COc1cc(Cl)ccc1O[C@H]1CCN(C(C)(C)CCC(C(N)=O)(c2ccccc2)c2ccccc2)C1` [Example 35, 5-[(3S)-3-(4-Chloro-2-Methoxy-phenoxy)-pyrrolidin-1-yl]-5-methyl-2,2-diphenyl-hexanoic acid amide], for which the pKi was 8.14.

Take `CC(C)(CCC(C(N)=O)(c1ccccc1)c1ccccc1)N1CC(OCc2c(Cl)ccc(O)c2Cl)C1` [Example 128, 5-[3-(2,6-Dichloro-3-hydroxy-benzyloxy)-azetidin-1-yl]-5-methyl-2,2-diphenyl-hexanoic acid amide]: the pKi is 8.09.
